In patent US7030132B2, “Method of improving bioavailability of orally administered drugs, a method of screening for enhancers of such bioavailability and novel pharmaceutical compositions for oral delivery of drugs” (Cancer Research Ventures Limited, priority 1999, dated 2006):
Where two headings read alike, the source gives them in different places.

Columns and labels:
[1] = Clinical trial: oral topotecan with or without GF120918, plasma levels; format: in vivo; conditions: three patients, topotecan 1.0 mg/m2 oral, with or without oral GF120918 (1000 mg)
Protocol: In this example the first results of a clinical trial are shown. Three patients received topotecan orally at a dosis of 1.0 mg.m^−2. Topotecan was administered with or without GF120918 (1000 mg). For illustrative purposes, the plasma concentration vs. time is shown for one patient in FIG. 2. In FIG. 3 the average including the standard deviation is shown for all three patients.

T8 resistant cells = assay: Cytotoxicity, sulphorhodamine (SRB) assay, T8 resistant (BCRP overexpressing) cells; format: cell-based, human; conditions: for IC50: T8 resistant cells; for ratio −/+ GF120918 (T8): IC50 without / with 2 μM GF120918, T8
Protocol: (§1) Cytotoxicity was Determined Using the Sulphorhodamine (SRB) Assay. Cells were plated in 96-wells plates, 1500 cells/well. Cells were cultured for 48 h at 37° C. and 5% CO2 in the absence of drugs. Then, in a serial dilution from approximately 1 μM to approximately 0.05 nM drugs were added, and cells were cultured for another 5 days at 37° C. and 5% CO2 Next cells are fixated in the plate, washed, and coloured with SRB. After 20 min unbound SRB is washed away using 0.1 M acetic acid. SRB that is bound to the cells is dissolved in 10 mM Tris-HCl buffer. Using a 96-well plate reader the absorbance at 540 nm is measured. For each drug the IC50 value was determined. Results are the mean of at least 3 experiments.

IGROV1 parental cells = assay: Cytotoxicity, sulphorhodamine (SRB) assay, IGROV1 parental cells; format: cell-based, human; conditions: for IC50: IGROV1 parental cells; for ratio −/+ GF120918 (IGROV1): IC50 without / with 2 μM GF120918, IGROV1
Protocol: as §1

[2] = Effect of GF120918 on oral bioavailability of topotecan in mdr1a/1b (-/-) mice; format: in vivo; conditions: topotecan 1 mg/kg oral, GF120918 50 mg/kg oral 15 min prior, plasma
From the text: The tests with mice assessed the bioavailability of the drug in mdr1a/1b double knock out mice in the presence and the absence of a BCRP inhibitor. The bioavailability tests can also be carried out with either MRP and/or P-gp knock out mice thus enabling assessment of whether any effect found due to the presence of the bioinhibitor is due solely to BCRP, not due to P-gp and/or MRP. Thus it can be determined whether the particular drug transported is transported using one or more transport systems. The drug to be transported can be provided with a detectable marker to assess where it is located and to be able to quantitate it. Some drugs can be detected and quantitated in plasma without use of a detectable marker. The methodology employed is analogous to that disclosed in the Lancet article discussed above and is also described in Br. J. Cancer 1997, 76: 1181–1183. The methodology is thus considered to be incorporated by reference and is considered enabled to a person skilled in the art. […]
GF120918 was suspended in a hydroxypropylmethylcellulose (10 g/l): Tween 80 (2% v/v): H2O (0.5:1:98.5 v/v/v) formulation for oral administration, at 5 mg.ml^−1. […] Topotecan levels in plasma were determined by HPLC analysis as described by Rosing et al., 1995, J. Chromatography, 668: 107–115, and are depicted in FIG. 1.

[3] = Homo sapiens, without GF120918, read-out: T8 IC50
[4] = + 2 μM GF120918, read-out: T8 + GF120918 IC50
[5] = Homo sapiens, IGROV-1, 120 h, without GF120918, 5 days drug exposure, read-out: IGROV1 IC50
[6] = + 2 μM GF120918, read-out: IGROV1 + GF120918 IC50
[7] = without GF120918, read-out: T8 IC50
[8] = without GF120918, 5 days drug exposure, read-out: IGROV1 IC50

systemic exposure (AUC) to oral topotecan [1] | increase in the area under the curve (AUC) of oral topotecan [2] | Structure (SMILES) | Rf (resistance factor) T8 + GF120918 (T8 resistant cells; + 2 μM GF120918) | IC50 (T8 resistant cells; [3]) | ratio −/+ GF120918 (T8) (T8 resistant cells) | IC50 (T8 resistant cells; [4]) | Rf (resistance factor, IC50 T8 / IC50 IGROV1) (T8 resistant cells; without GF120918) | IC50 (IGROV1 parental cells; [5]) | ratio −/+ GF120918 (IGROV1) (IGROV1 parental cells) | IC50 (IGROV1 parental cells; [6]) | IC50 (T8 resistant cells; [7]) | IC50 (IGROV1 parental cells; [8]) | reversal of resistance of T8 for topoisomerase I drugs (T8 resistant cells; addition of 2 μM GF120918) | effect of GF120918 on the sensitivity of the parental cell line IGROV1 (IGROV1 parental cells; 2 μM GF120918, topoisomerase I drugs)
increased systemic exposure | approximately 6 fold | CC[C@@]1(O)C(=O)OCc2c1cc1n(c2=O)Cc2cc3c(CN(C)C)c(O)ccc3nc2-1 [topotecan] | 4.3 | 979 nM | 24.4 | 40.2 nM | 110 | 8.93 nM | 0.97 | 9.23 nM |  |  |  | 
 |  | CCc1c2c(nc3ccc(O)cc13)-c1cc3c(c(=O)n1C2)COC(=O)[C@]3(O)CC [SN-38] | 6.0 |  | 64.1 | 6.54 nM | 231 |  | 1.66 | 1.1 nM | 419 nM | 1.82 nM |  | 
 |  | COc1cc2c(cc1OC)CN(CCc1ccc(NC(=O)c3cccc4c(=O)c5cccc(OC)c5[nH]c34)cc1)CC2 [GF120918] |  |  |  |  |  |  |  |  |  |  | for the greater part reversed | no or very little effect
 |  | CC[C@@]1(O)C(=O)OCc2c1cc1n(c2=O)Cc2c-1nc1ccccc1c2CC[Si](C)(C)C [BNP1350] | 4.1 | 4.94 nM | 1.4 | 3.45 nM | 11 | 0.44 nM | 0.53 | 0.84 nM |  |  |  | 
 |  | CC[C@@]1(O)C(=O)OCc2c1cc1n(c2=O)Cc2c-1nc1cc3c(cc1c2CN1CCN(C)CC1)OCCO3 [GG211] | 5.3 |  | 4.9 | 4.57 nM | 35 |  | 0.74 | 0.87 nM | 22.4 nM | 0.64 nM |  | 
 |  | CC[C@@]1(O)C(=O)OCc2c1cc1n(c2=O)Cc2c-1nc1cc(F)c(C)c3c1c2C(N)CC3.CS(=O)(=O)O (stereo partly shown) [DX8951f] | 2.3 |  | 7.4 | 0.39 nM | 29 |  | 0.60 | 0.17 nM | 2.88 nM | 0.1 nM |  | 
 |  | CCc1c2c(nc3ccc(OC(=O)N4CCC(N5CCCCC5)CC4)cc13)-c1cc3c(c(=O)n1C2)COC(=O)[C@]3(O)CC [CPT11, irinotecan] | 4.7 | 34000 nM | 11.2 | 3040 nM | 62 | 544 nM | 0.84 | 651 nM |  |  |  | 
